Data published in patent US6362369B1, “Phthalic acid diamide derivatives fluorine-containing aniline compounds as starting material, agricultural and horticultural insecticides, and a method for application of the insecticides” (Nihon Nohyaku Co., Ltd., priority 1997, dated 2002).

What was measured:
[1] = test system: common cutworm (Spodoptera Litura); assay: Insecticidal effect on common cutworm (Test Example 2); format: in vivo; settings: 500 ppm, 25° C.; for Insecticidal effect, Test Example 2: common cutworm second-instar larvae, cabbage leaf immersed; for Insecticidal effect (Test Example 2), judged from mortality: second-instar larvae of common cutworm, 8 days after inoculation
Description: Insecticidal effect on common cutworm (Spodoptera Litura)
After air-drying, it was placed in a plastic Petri dish with a diameter of 9 cm and inoculated with second-instar larvae of common cutworm, after which the dish was closed and then allowed to stand in a room thermostated at 25° C. Eight days after the inoculation, the dead and alive were counted. The mortality was calculated according to the following equation and the insecticidal effect was judged according to the criterion shown in Test Example 1. The test was carried out with triplicate groups of 10 insects. [formula]

[2] = test system: diamondback moth (Plutella xylostella); assay: Insecticidal effect on diamondback moth (Test Example 1); format: in vivo; settings: for Insecticidal effect, Test Example 1 / Insecticidal effect (Test Example 1), judged from mortality: diamondback moth; for Insecticidal effect, Test Example 1: mortality judged by criterion of Test Example 1; for Insecticidal effect (Test Example 1), judged from mortality: judged by the criterion of Test Example 1
In short: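 Read-out was mortality from hatched-insect counts taken 6 days after the egg-bearing cabbage seedling was immersed, graded by set criteria. Seedlings were air-dried and kept at 25° C after treatment. Groups of 10 insects, in triplicate.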

## Cc1cc(Cl)ccc1NC(=O)c1c(Cl)cccc1C(=O)NC(C)(C)C [compound 938]
[1]; cabbage leaf dip, second-instar larvae, eight days after inoculation
  Insecticidal effect on common cutworm (Test Example 2), judged grade: A (100)
[2]; mortality judged according to the criterion shown in Test Example 1
  Insecticidal effect on diamondback moth (Test Example 1), judged grade: A (100)

## CC(C)NC(=O)c1c(I)cccc1C(=O)Nc1ccc(I)cc1C(C)C [compound 965]
[1]; eight days after inoculation
  Insecticidal effect, Test Example 2: C (89-80)
[2]
  Insecticidal effect, Test Example 1: A (100)

## CC(C)(C)NC(=O)c1ccccc1C(=O)Nc1ccc(C(O)(C(F)(F)F)C(F)(F)F)cc1 [compound 1052]
[1]; eight days after inoculation
  Insecticidal effect, Test Example 2: A (100)
[2]
  Insecticidal effect, Test Example 1: A (100)

## CC(C)(C)NC(=O)c1c(I)cccc1C(=O)Nc1ccc2c(c1)OC(F)(F)C(F)O2 (stereo not drawn) [compound 1166]
[1]; eight days after inoculation
  Insecticidal effect, Test Example 2: A (100)
[2]
  Insecticidal effect, Test Example 1: A (100)

## CCN(CC)C(=O)c1c(I)cccc1C(=O)N(CC)c1ccc(C(F)(F)C(F)(F)F)cc1C [compound 1179]
[1]; eight days after inoculation
  Insecticidal effect, Test Example 2: A (100)
[2]
  Insecticidal effect, Test Example 1: A (100)

## Cc1cc(OC(F)(F)F)ccc1NC(=O)c1cccc(C(F)(F)F)c1C(=O)NC(C)C [compound 1183]
[1]; eight days after inoculation
  Insecticidal effect, Test Example 2: A (100)
[2]
  Insecticidal effect, Test Example 1: A (100)

## Cc1cc(C(F)(F)C(F)(F)F)ccc1NC(=O)c1cccc(C(F)(F)F)c1C(=O)NC(C)C [compound 1184]
[1]; eight days after inoculation
  Insecticidal effect, Test Example 2: A (100)
[2]
  Insecticidal effect, Test Example 1: A (100)

## CCN(CC)C(=O)c1c(C(=O)Nc2ccc(OC(F)(F)F)cc2C)cccc1C(F)(F)F [compound 1185]
[1]; eight days after inoculation
  Insecticidal effect, Test Example 2: C (89-80)
[2]
  Insecticidal effect, Test Example 1: A (100)

## CCN(CC)C(=O)c1c(C(=O)Nc2ccc(C(F)(F)C(F)(F)F)cc2C)cccc1C(F)(F)F [compound 1186]
[1]; eight days after inoculation
  Insecticidal effect, Test Example 2: A (100)
[2]
  Insecticidal effect, Test Example 1: A (100)

## CC(C)NC(=O)c1c(Cl)cccc1C(=O)Nc1ccc(OC(F)(F)F)cc1F [compound 1187]
[1]; eight days after inoculation
  Insecticidal effect, Test Example 2: A (100)
[2]
  Insecticidal effect, Test Example 1: A (100)

## CC(C)NC(=O)c1c(I)cccc1C(=O)Nc1ccc(OC(F)(F)F)cc1F [compound 1188]
[1]; eight days after inoculation
  Insecticidal effect, Test Example 2: A (100)
[2]
  Insecticidal effect, Test Example 1: A (100)

## CC(C)(C)NC(=O)c1c(I)cccc1C(=O)Nc1ccc(OC(F)(F)F)cc1F [compound 1189]
[1]; eight days after inoculation
  Insecticidal effect, Test Example 2: A (100)
[2]
  Insecticidal effect, Test Example 1: A (100)

## Cc1cc(OC(F)(F)F)ccc1NC(=O)c1cccc(OC(F)(F)F)c1C(=O)NC(C)C [compound 1233]
[1]; eight days after inoculation
  Insecticidal effect, Test Example 2: A (100)
[2]
  Insecticidal effect, Test Example 1: A (100)

## Cc1cc(OC(F)(F)F)ccc1NC(=O)c1cccc(OC(F)(F)F)c1C(=O)NC(C)(C)C [compound 1234]
[1]; eight days after inoculation
  Insecticidal effect, Test Example 2: A (100)
[2]
  Insecticidal effect, Test Example 1: A (100)

## CCN(CC)C(=O)c1c(OC(F)(F)F)cccc1C(=O)Nc1ccc(OC(F)(F)F)cc1C [compound 1235]
[1]; eight days after inoculation
  Insecticidal effect, Test Example 2: D (79-50)
[2]
  Insecticidal effect, Test Example 1: A (100)

## Cc1cc(C(F)(C(F)(F)F)C(F)(F)F)ccc1NC(=O)c1cccc(OC(F)(F)F)c1C(=O)NC(C)C [compound 1236]
[1]; eight days after inoculation
  Insecticidal effect, Test Example 2: A (100)
[2]
  Insecticidal effect, Test Example 1: A (100)

## Cc1cc(C(F)(C(F)(F)F)C(F)(F)F)ccc1NC(=O)c1cccc(OC(F)(F)F)c1C(=O)NC(C)(C)C [compound 1237]
[1]; eight days after inoculation
  Insecticidal effect, Test Example 2: A (100)
[2]
  Insecticidal effect, Test Example 1: A (100)

## Cc1cc(C(F)(F)C(F)(F)F)ccc1NC(=O)c1cccc(C#N)c1C(=O)NC(C)C [compound 1245]
[1]; eight days after inoculation
  Insecticidal effect, Test Example 2: A (100)
[2]
  Insecticidal effect, Test Example 1: A (100)

## Cc1cc(C(F)(F)C(F)(F)F)ccc1NC(=O)c1ccc(F)c(Cl)c1C(=O)NC(C)(C)C [compound 1257]
[1]; eight days after inoculation
  Insecticidal effect, Test Example 2: A (100)
[2]
  Insecticidal effect, Test Example 1: A (100)

## CCN(CC)C(=O)c1c(C(=O)Nc2ccc(C(F)(F)C(F)(F)F)cc2C)ccc(F)c1Cl [compound 1258]
[1]; eight days after inoculation
  Insecticidal effect, Test Example 2: A (100)
[2]
  Insecticidal effect, Test Example 1: A (100)

## CCN(CC)C(=O)c1c(C(=O)Nc2ccc(OC(F)(F)F)cc2C)ccc(F)c1Cl [compound 1261]
[1]; eight days after inoculation
  Insecticidal effect, Test Example 2: A (100)
[2]
  Insecticidal effect, Test Example 1: A (100)

## Cc1cc(OC(F)F)ccc1NC(=O)c1cccc(Cl)c1C(=O)N[C@@H](C)c1ccccc1 [compound 1459]
[1]; cabbage leaf dip
  Insecticidal effect (Test Example 2), judged from mortality: A (100)
[2]
  Insecticidal effect (Test Example 1), judged from mortality: A (100)

## O=C(Nc1ccc(C(F)(F)C(F)(F)F)cc1F)c1cccc(Cl)c1C(=O)NCc1ccccc1 [compound 1486]
[1]; cabbage leaf dip
  Insecticidal effect (Test Example 2), judged from mortality: A (100)
[2]
  Insecticidal effect (Test Example 1), judged from mortality: A (100)

## O=C(Nc1ccc(C(F)(F)C(F)(F)F)cc1Cl)c1cccc(Cl)c1C(=O)NCc1ccccc1 [compound 1487]
[1]; cabbage leaf dip
  Insecticidal effect (Test Example 2), judged from mortality: A (100)
[2]
  Insecticidal effect (Test Example 1), judged from mortality: A (100)

## Cc1cc(C(F)(F)C(F)(F)F)ccc1N(C)C(=O)c1cccc(Cl)c1C(=O)NC(C)c1ccccc1 (stereo not drawn) [compound 1554]
[1]; cabbage leaf dip
  Insecticidal effect (Test Example 2), judged from mortality: A (100)
[2]
  Insecticidal effect (Test Example 1), judged from mortality: A (100)

## CC(C)NC(=O)c1c(Cl)cccc1C(=O)Nc1cc2c(cc1F)OC(F)(F)O2 [compound 1594]
[1]; cabbage leaf dip
  Insecticidal effect (Test Example 2), judged from mortality: A (100)
[2]
  Insecticidal effect (Test Example 1), judged from mortality: A (100)

## CC(C)NC(=O)c1c(I)cccc1C(=O)Nc1cc2c(cc1F)OC(F)(F)O2 [compound 1595]
[1]; cabbage leaf dip
  Insecticidal effect (Test Example 2), judged from mortality: A (100)
[2]
  Insecticidal effect (Test Example 1), judged from mortality: A (100)

## CC(C)(C)NC(=O)c1c(I)cccc1C(=O)Nc1cc2c(cc1F)OC(F)(F)O2 [compound 1596]
[1]; cabbage leaf dip
  Insecticidal effect (Test Example 2), judged from mortality: A (100)
[2]
  Insecticidal effect (Test Example 1), judged from mortality: A (100)

## Cc1cc(OC(F)(F)F)ccc1NC(=O)c1cccc(I)c1C(=O)NC(C)(C)CBr [compound 1605]
[1]; cabbage leaf dip
  Insecticidal effect (Test Example 2), judged from mortality: C (89-80)
[2]
  Insecticidal effect (Test Example 1), judged from mortality: A (100)

## Cc1cc(C(F)(F)C(F)(F)F)ccc1NC(=O)c1cccc(I)c1C(=O)N[C@@H](C)CBr [compound 1606]
[1]; cabbage leaf dip
  Insecticidal effect (Test Example 2), judged from mortality: A (100)
[2]
  Insecticidal effect (Test Example 1), judged from mortality: A (100)

## Cc1cc(C(F)(F)C(F)(F)F)ccc1NC(=O)c1cccc(I)c1C(=O)N[C@H](C)CBr [compound 1607]
[1]; cabbage leaf dip
  Insecticidal effect (Test Example 2), judged from mortality: A (100)
[2]
  Insecticidal effect (Test Example 1), judged from mortality: A (100)

## CC(C)NC(=O)c1c(I)cccc1C(=O)Nc1ccc(C(F)(F)C(F)(F)F)c(Cl)c1 [compound 1608]
[1]; cabbage leaf dip
  Insecticidal effect (Test Example 2), judged from mortality: A (100)
[2]
  Insecticidal effect (Test Example 1), judged from mortality: A (100)

## CC(C)(C)NC(=O)c1c(I)cccc1C(=O)Nc1ccc(C(F)(F)C(F)(F)F)c(Cl)c1 [compound 1609]
[1]; cabbage leaf dip
  Insecticidal effect (Test Example 2), judged from mortality: A (100)
[2]
  Insecticidal effect (Test Example 1), judged from mortality: A (100)

## Cc1cc(C(F)(F)C(F)(F)F)c(C)cc1NC(=O)c1cccc(I)c1C(=O)NC(C)C [compound 1610]
[1]; cabbage leaf dip
  Insecticidal effect (Test Example 2), judged from mortality: A (100)
[2]
  Insecticidal effect (Test Example 1), judged from mortality: A (100)

## Cc1c(NC(=O)c2cccc(I)c2C(=O)NC(C)C)ccc(C(F)(F)C(F)(F)F)c1C [compound 1612]
[1]; cabbage leaf dip
  Insecticidal effect (Test Example 2), judged from mortality: A (100)
[2]
  Insecticidal effect (Test Example 1), judged from mortality: A (100)

## Cc1c(NC(=O)c2cccc(I)c2C(=O)NC(C)(C)C)ccc(C(F)(F)C(F)(F)F)c1C [compound 1613]
[1]; cabbage leaf dip
  Insecticidal effect (Test Example 2), judged from mortality: A (100)
[2]
  Insecticidal effect (Test Example 1), judged from mortality: A (100)

## CCN(CC)C(=O)c1c(I)cccc1C(=O)Nc1ccc(-c2ccc(C(F)(F)F)cc2)cc1C [compound 1619]
[1]; cabbage leaf dip
  Insecticidal effect (Test Example 2), judged from mortality: A (100)
[2]
  Insecticidal effect (Test Example 1), judged from mortality: A (100)

## CC(C)NC(=O)c1c(I)cccc1C(=O)Nc1cc2c(cc1I)OC(F)(F)O2 [compound 1660]
[1]; cabbage leaf dip
  Insecticidal effect (Test Example 2), judged from mortality: A (100)
[2]
  Insecticidal effect (Test Example 1), judged from mortality: A (100)

## COc1cc(C(F)(F)C(F)(F)F)ccc1NC(=O)c1cccc(I)c1C(=O)NC(C)(C)C [compound 1662]
[1]; cabbage leaf dip
  Insecticidal effect (Test Example 2), judged from mortality: A (100)
[2]
  Insecticidal effect (Test Example 1), judged from mortality: A (100)

## Cc1cc(C(F)(C(F)(F)F)C(F)(F)F)c(F)cc1NC(=O)c1cccc(I)c1C(=O)NC(C)C [compound 1663]
[1]; cabbage leaf dip
  Insecticidal effect (Test Example 2), judged from mortality: A (100)
[2]
  Insecticidal effect (Test Example 1), judged from mortality: A (100)

## Cc1cc(C(F)(C(F)(F)F)C(F)(F)F)c(F)cc1NC(=O)c1cccc(I)c1C(=O)NC(C)(C)C [compound 1664]
[1]; cabbage leaf dip
  Insecticidal effect (Test Example 2), judged from mortality: A (100)
[2]
  Insecticidal effect (Test Example 1), judged from mortality: A (100)

## Cc1cc(C(F)(C(F)(F)F)C(F)(F)F)c(Cl)cc1NC(=O)c1cccc(I)c1C(=O)NC(C)C [compound 1665]
[1]; cabbage leaf dip
  Insecticidal effect (Test Example 2), judged from mortality: A (100)
[2]
  Insecticidal effect (Test Example 1), judged from mortality: A (100)

## Cc1cc2c(cc1NC(=O)c1cccc(I)c1C(=O)NC(C)C)OC(F)(F)C2(F)F [compound 1666]
[1]; cabbage leaf dip
  Insecticidal effect (Test Example 2), judged from mortality: A (100)
[2]
  Insecticidal effect (Test Example 1), judged from mortality: A (100)

## Cc1cc(C(F)(C(F)(F)F)C(F)(F)F)ccc1NC(=O)c1cccc(I)c1C(=O)NC(C)C [compound 1667]
[1]; cabbage leaf dip
  Insecticidal effect (Test Example 2), judged from mortality: A (100)
[2]
  Insecticidal effect (Test Example 1), judged from mortality: A (100)

## Cc1cc(C(F)(C(F)(F)F)C(F)(F)F)ccc1NC(=O)c1cccc(I)c1C(=O)NC(C)(C)C [compound 1668]
[1]; cabbage leaf dip
  Insecticidal effect (Test Example 2), judged from mortality: A (100)
[2]
  Insecticidal effect (Test Example 1), judged from mortality: A (100)
